Data from US8822468B2 (Novartis AG, priority 2008, dated 2014).

Biological target: T1, cMET receptor tyrosine kinase (GST-cMET (969-1390)) (Homo sapiens, UniProt P08581)
T1 construct: made in house
Assay: EPK cMET profiling assay (LanthaScreen TR-FRET antibody based kinase phosphorylation assay)
Type: biochemical
Details: purified recombinant GST-cMET (969-1390), 2 μM ATP, 50 nM Fluorescein-PolyEAY, 60 minutes at room temperature; read-out: c-Met IC50
Protocol: A number of compounds of the present invention were assayed in an antibody based kinase phosphorylation assay as follows.
EPK cMET Profiling Assay:
The EPK kinase assay for cMET receptor tyrosine kinase was developed, using the purified recombinant GST-fusion protein, containing the cytoplasmic domain of the enzyme. GST-cMET (969-1390) was purified by affinity chromatography.
The kinase assay is based on the LanthaScreen™ technology. LanthaScreen™ is the detection of Time-Resolved Fluorescence Resonance Energy Transfer (TR-FRET) using lanthanide chelates to measure interactions between various binding partners. In a TR-FRET kinase assay, a long-lifetime lanthanide donor species is conjugated to an antibody that specifically binds to a phosphorylated product of a kinase reaction that is labeled with a suitable acceptor fluorophore. This antibody-mediated interaction brings the lanthanide donor and the acceptor into proximity such that resonance energy transfer can take place, resulting in a detectible increase in the FRET signal.
The kinase reactions were performed in 384 well microtiter plates in a total reaction volume of 9.05 μL. The assay plates were prepared with 0.05 μL per well of test compound in the appropriate test concentration, as described under “preparation of compound dilutions”. The reactions were started by combining 4.5 μL of ATP solution with 4.5 μL of enzyme-substrate mix (consisting of kinase and substrate). The final concentrations in the kinase reactions were 35 mM Tris/HCl, 1 mM DTT, 0.025% Tween20, 10 μM sodium orthovanadate, 0.25% BSA, 0.6% DMSO, 10 mM MgCl2, 3 mM MnCl2, 2 μM ATP, 50 nM Fluorescein-PolyEAY, and 0.3 nM enzyme.
The reactions were incubated for 60 minutes at room temperature and stopped by adding 4.5 μL of stop buffer (50 mM EDTA, 0.04% NP40, 20 mM Tris/HCl).
Subsequently 4.5 μL of detection mix (50 mM Tris/HCl, 2 mM DTT, 0.05% Tween20, 20 μM sodium orthovanadate, 1% BSA, 1.72 μg/ml Tb-PY20 antibody) were added to the stopped reactions. After 30 minutes incubation at room temperature, the plates were measured in a BMG Pherastar fluorescence reader. The effect of compound on the enzymatic activity was in all assays obtained from the linear progress curves and determined from one reading (end point measurement).
Test compounds were dissolved in DMSO (10 mM) and transferred into 1.4 mL flat bottom or V-shaped Matrix tubes carrying a unique 2D matrix. The stock solutions were stored at −20° C. if not used immediately. For the test procedure the vials were defrosted and identified by a scanner whereby a working sheet was generated that guided the subsequent working steps.
Compound dilutions were made in 96 well plates. This format enabled the assay of maximally 40 individual test compounds at 8 concentrations (single points) including 4 reference compounds. The dilution protocol included the production of “pre-dilution plates”, “master plates” and “assay plates”.
Pre-dilution plates: 96 polypropylene well plates were used as pre-dilution plates. A total of 4 pre-dilution plates were prepared including 10 test compounds each on the plate positions A1-A10, one standard compound at A11 and one DMSO control at A12. All dilution steps were done on a HamiltonSTAR robot.
Master plates: 100 μL of individual compound dilutions including standard compound and controls of the 4 “pre-dilution plates” were transferred into a 384 “master plate” including the following concentrations 1,820, […], 182, 54.6, 18.2, 5.46, 1.82 and 0.546 μM, respectively in 90% of DMSO.
Assay plates: Identical “assay plates” were then prepared by pipetting 50 nL each of compound dilutions of the “master plates” into 384-well “assay plates” by means of a HummingBird 384-channel dispenser. These plates were used directly for the assay which was performed in a total volume of 9.05 μL. This led to a final compound concentration of 10, 3.0, 1.0, 0.3, 0.1, 0.03, 0.01 and 0.003 μM and a final DMSO concentration of 0.5% in the assay.

T1 sequence (P08581 969-1390): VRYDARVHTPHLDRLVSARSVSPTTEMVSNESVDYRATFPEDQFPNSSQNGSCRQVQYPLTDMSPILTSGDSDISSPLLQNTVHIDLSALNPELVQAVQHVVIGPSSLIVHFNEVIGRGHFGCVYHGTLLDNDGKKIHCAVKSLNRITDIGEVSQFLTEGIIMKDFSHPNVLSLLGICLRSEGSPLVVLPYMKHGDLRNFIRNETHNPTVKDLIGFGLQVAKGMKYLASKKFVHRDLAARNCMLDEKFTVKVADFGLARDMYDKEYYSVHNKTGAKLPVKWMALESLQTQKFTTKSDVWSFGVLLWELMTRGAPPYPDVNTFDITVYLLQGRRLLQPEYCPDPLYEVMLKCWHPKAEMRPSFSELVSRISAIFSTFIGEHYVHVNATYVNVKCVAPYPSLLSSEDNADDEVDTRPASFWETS

Compound	IC50 [nM]
OCCn1cc(-c2ccc3ncc(Cc4c(F)cc5ncccc5c4F)n3n2)cn1 [Example 171, 2-{4-[3-(5,7-Difluoro-quinolin-6-ylmethyl)-imidazo[1,2-b]pyridazin-6-yl]-pyrazol-1-yl}-ethanol]	< 3
CC(O)c1cnc2ccc(Cc3cnc4ccc(-c5cnn(C)c5)nn34)cn12 (stereo not shown) [Example 303, 1-{6-[6-(1-Methyl-1H-pyrazol-4-yl)-imidazo[1,2-b]pyridazin-3-ylmethyl]-imidazo[1,2-a]pyridin-3-yl}-ethanol]	190
CC(c1cc2cccnc2cc1F)c1cnc2ccc(-c3cnn(C4CCN(C)CC4)c3)nn12 (racemic) [Example 259, (rac)-7-Fluoro-6-(1-{6-[1-(1-methyl-piperidin-4-yl)-1H-pyrazol-4-yl]-imidazo[1,2-b]pyridazin-3-yl}-ethyl)-quinoline]	23
c1cncc(Nc2ccc3ncc(Cc4ccc5ncccc5c4)n3n2)c1 [Example 129, Pyridin-3-yl-(3-quinolin-6-ylmethyl-imidazo[1,2-b]pyridazin-6-yl)-amine]	69
Cn1cc(-c2ccc3ncc(Cc4ccc5occc5c4)n3n2)cn1 [Example 8, 3-Benzofuran-5-ylmethyl-6-(1-methyl-1H-pyrazol-4-yl)-imidazo[1,2-b]pyridazine]	270
c1cnc2ccc(Cc3cnc4ccc(-c5ccc6c(c5)OCO6)nn34)cc2c1 [Example 51, 6-(6-Benzo[1,3]dioxol-5-yl-imidazo[1,2-b]pyridazin-3-ylmethyl)-quinoline]	95
CC(C)(C)OC(=O)N1CCC(n2cc(-c3ccc4ncc(Cc5c(F)cc6ncccc6c5F)n4n3)cn2)CC1 [Example 244, 4-{4-[3-(5,7-Difluoro-quinolin-6-ylmethyl)-imidazo[1,2-b]pyridazin-6-yl]-pyrazol-1-yl}-piperidine-1-carboxylic acid tert-butyl ester]	87
Cn1cc(-c2ccc3ncc(Cc4ccc5ncc(-c6cnn(C)c6)n5c4)n3n2)cn1 [Example 307, 6-(1-Methyl-1H-pyrazol-4-yl)-3-[3-(1-methyl-1H-pyrazol-4-yl)-imidazo[1,2-a]pyridin-6-ylmethyl]-imidazo[1,2-b]pyridazine]	320
CC(c1ccc2ncn(C)c2c1)c1cnc2ccc(-c3cnn(CCO)c3)nn12 (racemic) [Example 185, (rac)-2-(4-{3-[1-(3-Methyl-3H-benzoimidazol-5-yl)-ethyl]-imidazo[1,2-b]pyridazin-6-yl}-pyrazol-1-yl)-ethanol]	56
CCN1CCC(n2cc(-c3ccc4ncc(Cc5cc6cccnc6cc5F)n4n3)cn2)CC1 [Example 148, 6-{6-[1-(1-Ethyl-piperidin-4-yl)-1H-pyrazol-4-yl]-imidazo[1,2-b]pyridazin-3-ylmethyl}-7-fluoro-quinoline]	16
CN(C)CCNC(=O)c1cccc(-c2ccc3ncc(Cc4ccc5ncccc5c4)n3n2)c1 [Example 66, N-(2-Dimethylamino-ethyl)-3-(3-quinolin-6-ylmethyl-imidazo[1,2-b]pyridazin-6-yl)-benzamide]	60
c1cnc2ccc(Cc3cnc4ccc(-c5cnn(CCN6CCC6)c5)nn34)cc2c1 [Example 235, 6-{6-[1-(2-Azetidin-1-yl-ethyl)-1H-pyrazol-4-yl]-imidazo[1,2-b]pyridazin-3-ylmethyl}-quinoline]	220
c1cnc2ccc(Cc3cnc4ccc(N5CCOCC5)nn34)cc2c1 [Example 84, 6-(6-Morpholin-4-yl-imidazo[1,2-b]pyridazin-3-ylmethyl)-quinoline]	49
CN1CCC(n2cc(-c3ccc4ncc(Cc5c(F)cc6ncccc6c5F)n4n3)cn2)CC1 [Example 246, 5,7-Difluoro-6-{6-[1-(1-methyl-piperidin-4-yl)-1H-pyrazol-4-yl]-imidazo[1,2-b]pyridazin-3-ylmethyl}-quinoline]	< 3
C[C@@H](c1ccc2c(cnn2C)c1)c1cnc2ccc(-c3cnn(C)c3)nn12 [Example 196, 3-[(S)-1-(1-Methyl-1H-indazol-5-yl)-ethyl]-6-(1-methyl-1H-pyrazol-4-yl)-imidazo[1,2-b]pyridazine]	36
NC(=O)c1cccc(-c2ccc3ncc(Cc4ccc5ncccc5c4)n3n2)c1 [Example 57, 3-(3-Quinolin-6-ylmethyl-imidazo[1,2-b]pyridazin-6-yl)-benzamide]	63
OCCNc1ccc2ncc(Cc3ccc4ncccc4c3)n2n1 [Example 92, 2-(3-Quinolin-6-ylmethyl-imidazo[1,2-b]pyridazin-6-ylamino)-ethanol]	32
Cc1cccc(-c2ccc3ncc(C(C)c4ccc5nccn5c4)n3n2)c1 (racemic) [Example 308, (rac)-3-(1-Imidazo[1,2-a]pyridin-6-yl-ethyl)-6-m-tolyl-imidazo[1,2-b]pyridazine]	82
c1cnc2ccc(Cc3cnc4ccc(-c5cnn(CCN6CCCC6)c5)nn34)cc2c1 [Example 236, 6-{6-[1-(2-Pyrrolidin-1-yl-ethyl)-1H-pyrazol-4-yl]-imidazo[1,2-b]pyridazin-3-ylmethyl}-quinoline]	370
Cn1cc(-c2ccc3ncc(C4(c5ccc6ncccc6c5)CC4)n3n2)cn1 [Example 163, 6-{1-[6-(1-Methyl-1H-pyrazol-4-yl)-imidazo[1,2-b]pyridazin-3-yl]-cyclopropyl}-quinoline]	110
CC(c1ccc2nccn2c1)c1cnc2ccc(Cl)nn12 (racemic) [Example 292, (rac)-6-Chloro-3-(1-imidazo[1,2-a]pyridin-6-yl-ethyl)-imidazo[1,2-b]pyridazine]	80
Fc1cc2ncccc2cc1Cc1cnc2ccc(-c3cnn(CCN4CCCC4)c3)nn12 [Example 231, 7-Fluoro-6-{6-[1-(2-pyrrolidin-1-yl-ethyl)-1H-pyrazol-4-yl]-imidazo[1,2-b]pyridazin-3-ylmethyl}-quinoline]	26
Cn1cc(-c2ccc3ncc(C(O)c4ccc5nccnc5c4)n3n2)cn1 (racemic) [Example 11, (rac)-[6-(1-Methyl-1H-pyrazol-4-yl)-imidazo[1,2-b]pyridazin-3-yl]-quinoxalin-6-yl-methanol]	910
c1cnc2ccc(Cc3cnc4ccc(NC5CCCCCCC5)nn34)cc2c1 [Example 97, Cyclooctyl-(3-quinolin-6-ylmethyl-imidazo[1,2-b]pyridazin-6-yl)-amine]	610
OC(c1cc2cccnc2cc1F)c1cnc2ccc(-c3cn[nH]c3)nn12 (racemic) [Example 252, (rac)-(7-Fluoro-quinolin-6-yl)-[6-(1H-pyrazol-4-yl)-imidazo[1,2-b]pyridazin-3-yl]-methanol]	280
CN1CCC(n2cc(-c3ccc4ncc(Cc5cc6cccnc6cc5F)n4n3)cn2)CC1 [Example 181, 7-Fluoro-6-{6-[1-(1-methyl-piperidin-4-yl)-1H-pyrazol-4-yl]-imidazo[1,2-b]pyridazin-3-ylmethyl}-quinoline]	65
CCn1cc(-c2ccc3ncc(Cc4cc5cccnc5cc4Cl)n3n2)cn1 [Example 242, 7-Chloro-6-[6-(1-ethyl-1H-pyrazol-4-yl)-imidazo[1,2-b]pyridazin-3-ylmethyl]-quinoline]	86
FC(F)(F)Oc1ccc(-c2ccc3ncc(Cc4ccc5ncccc5c4)n3n2)cc1 [Example 43, 6-[6-(4-Trifluoromethoxy-phenyl)-imidazo[1,2-b]pyridazin-3-ylmethyl]-quinoline]	350
